# Reference: patent US5384128A, “Method of and compounds for treatment for cystic fibrosis” (University of Alabama Research Foundation, priority 1993, dated 1995)
# Key:
# T84 cells [1] = experiment: 125I- efflux assay (Cl- channel activity), T84 cells; type: cell-based; conditions: for potency in stimulating 125I- efflux relative to DM: equimolar concentrations
# Source text: (§1) Forskolin or cAMP-stimulated Cl^- channel activity is a standard measurement of the activity of Cl^- channels represented by CFTR, while ionomycin or Ca^++ ionophore-stimulated Cl^- channel activity is a measure of the activity of Ca^++ -regulated Cl^- channels which arc different from those represented by CFTR. […] In contrast Ca^++ -regulated Cl^- channels operate normally in CF cells and are opened by ionomycin just as they are in T84 cells.
# (§2) The cells employed were (1) T84 cells (ATCC Accession No. CCL 248) (2) CFPAC-1 cells (ATCC Accession No. CRL 1918) (a newly established continuous line of pancreatic duct adenocarcinoma cells from a CF patient which is homozygous for the deletion of phenylalanine in the 508 position of CFTR, the mutation found in 70% of CF patients), (3) clones of CFPAC-1 cells which have been transduced with a retroviral vector (PLJ) containing (PLJ-CFTR-CFPAC) or lacking (PLJ-CFPAC) cDNA for functional CFTR, and (4) 2CFSMEo-, a continuous cell line derived from the tracheal submucosal gland of a CF patient whose exact genotype is unknown but which expresses the phenotype of defective Cl^- channel permeability characteristic of CF.
# (§3) In general, cells were washed with 1 ml of efflux medium (140 mM NaCl, 1 mM Ca gluconate, 1 mM Mg gluconate, 5 mM KH2 PO4, 10 mM Tris-Hepes pH 7.4) four times and incubated with ^125 I- (3μl Na ^125 I=12 μC) in 1 ml of the same medium containing 5 mM D-glucose for 1 hour at 37° C. to load the cells with ^125 I. The cells were then washed quickly five times with 1 ml of the efflux medium at 22° C. to remove any ^125 I- that had not been taken up by the cells. One ml of the efflux medium at 22° C. was then added to initiate efflux and left in contact with the cells for 1 minute, before being removed and replaced with another 1 ml of medium. This replacement procedure was carried out 2-5 times before addition of the appropriate surfactant and/or agonist in 1 ml of the same medium to one culture dish (experimental) while to another dish 1 ml of medium without surfactant and/or agonist was added (control). Medium with or without surfactant and/or agonist was replaced at 0.5 minute intervals until the 10 minute time point when the replacement time was prolonged to 1 minute intervals. The samples of the replacement media were counted in a gamma counter to determine the amount of ^125 I- effluxing from the cells into the medium in each time interval. After 15 minutes when measurement of efflux was completed the cells were extracted for 30 minutes with 1 ml 0.2N NaOH, 0.15% SDS and the extract counted to determine the residual ^125 I- remaining in the cells.
# (§4) The data is expressed as ^125 I- remaining in the cells (set at 100% at the initiation of efflux) and plotted against the time of efflux in minutes and/or as the ln % of ^125 I- remaining in the cells, plotted against the time of efflux in minutes. Expressing the data in the latter form facilitates calculation of the apparent rate constant for ^125 I- efflux using the equation r=[ln (R1)-ln (R2)]/(t1-t2) where R1 and R2 are the percent of counts remaining in the cell layer at times t1 and t2 respectively.
# CFTR in T84 cells = conditions: cited from earlier work
# CF cells = experiment: 125I- efflux / Cl- channel opening in CF cells; type: cell-based
# Method: as §1
# In general, cells were washed with 1 ml of efflux medium (140 mM NaCl, 1 mM Ca gluconate, 1 mM Mg gluconate, 5 mM KH2 PO4, 10 mM Tris-Hepes pH 7.4) four times and incubated with ^125 I- (3μl Na ^125 I=12 μC) in 1 ml of the same medium containing 5 mM D-glucose for 1 hour at 37° C. to load the cells with ^125 I. The cells were then washed quickly five times with 1 ml of the efflux medium at 22° C. to remove any ^125 I- that had not been taken up by the cells. […] The samples of the replacement media were counted in a gamma counter to determine the amount of ^125 I- effluxing from the cells into the medium in each time interval. After 15 minutes when measurement of efflux was completed the cells were extracted for 30 minutes with 1 ml 0.2N NaOH, 0.15% SDS and the extract counted to determine the residual ^125 I- remaining in the cells.
# CFPAC-1 = conditions: CFPAC-1, homozygous ΔF508; cited from earlier work
# CFPAC-1 cells = experiment: 125I- efflux assay, CFPAC-1 cells; type: cell-based, human
# Source text: as §2, §3, §4
# PLJ-CFPAC-10 = experiment: 125I- efflux assay, CFPAC-1 cells transduced with vector lacking CFTR cDNA; type: cell-based, human
# Source text: as §2
# (§5) In general, cells were washed with 1 ml of efflux medium (140 mM NaCl, 1 mM Ca gluconate, 1 mM Mg gluconate, 5 mM KH2 PO4, 10 mM Tris-Hepes pH 7.4) four times and incubated with ^125 I- (3μl Na ^125 I=12 μC) in 1 ml of the same medium containing 5 mM D-glucose for 1 hour at 37° C. to load the cells with ^125 I. The cells were then washed quickly five times with 1 ml of the efflux medium at 22° C. to remove any ^125 I- that had not been taken up by the cells. One ml of the efflux medium at 22° C. was then added to initiate efflux and left in contact with the cells for 1 minute, before being removed and replaced with another 1 ml of medium. […] The samples of the replacement media were counted in a gamma counter to determine the amount of ^125 I- effluxing from the cells into the medium in each time interval. After 15 minutes when measurement of efflux was completed the cells were extracted for 30 minutes with 1 ml 0.2N NaOH, 0.15% SDS and the extract counted to determine the residual ^125 I- remaining in the cells.
# (§6) The data is expressed as ^125 I- remaining in the cells (set at 100% at the initiation of efflux) and plotted against the time of efflux in minutes and/or as the ln % of ^125 I- remaining in the cells, plotted against the time of efflux in minutes. […]
# [2] = Effective dosage (general statement); type: cell-based; conditions: maltoside with alkyl chain of 12, 13 or 14 carbon atoms
# PLJ-CFTR-CFPAC-10 = experiment: 125I- efflux assay, CFPAC-1 cells transduced with wild-type CFTR cDNA; type: cell-based, human; conditions: vector containing wild-type CFTR cDNA (PLJ-CFTR-CFPAC-10)
# Source text: as §2, §5, §6
# 2CFSMEo- = experiment: 125I- efflux assay, airway epithelial cell line of a CF patient; type: cell-based, human; conditions: 2CFSMEo- cells
# Source text: as §2, §5, §6
# T84 cells [3] = conditions: comparison statement; cited from earlier work
# T84 cells [4] = conditions: human
compound,measurement,setting,value
"C[S+](C)[O-] [Dimethylsulfoxide (DMSO), Dimethylsulfoxide, reference compound]",effect in stimulating 125I- efflux,"T84 cells [1]; T84 cells, 17.6 mM",no effect
C=C[C@@]1(C)CC(=O)[C@]2(O)[C@@]3(C)[C@@H](O)CCC(C)(C)[C@@H]3[C@H](O)[C@H](OC(C)=O)[C@@]2(C)O1 [forskolin],activation of CFTR,CFTR in T84 cells,activate CFTR in T84 cells
same,125I- efflux in response to agonist,CF cells,not stimulated
same,activation of the Cl- channel,CFPAC-1,inability of the channel to be activated
same,stimulation of 125I- efflux,"T84 cells [1]; T84 cells, 20 μM forskolin",stimulation
same,response in 125I- efflux assay,CFPAC-1 cells,unresponsive
"CCCCCCCCCCCCCO[C@@H]1O[C@H](CO)[C@@H](OC2OC(CO)C(O)C(O)C2O)[C@H](O)[C@H]1O (stereo in doubt) [tri DM, tridecylmaltoside]",Cl- channel activity as measured by increased 125I- efflux,PLJ-CFPAC-10,stimulate
same,effective dosage,[2],10 to 400 µM
same,Cl- channel activity as measured by increased 125I- efflux,PLJ-CFTR-CFPAC-10,stimulate
same,potency as Cl- channel activator among alkylmaltosides tested,T84 cells [1],most potent
same,cause of 125I- efflux stimulation: cell lysis,T84 cells [1]; T84 cells,not due to lysis of the cells
same,"potency change on lengthening alkyl chain, DM as reference standard",T84 cells [1]; T84 cells,markedly increases the potency
same,"stimulation of 125I- efflux, dose dependence","T84 cells [1]; T84 cells, 10-100 μM",dose-dependent stimulation
same,potency in stimulating 125I- efflux relative to DM,T84 cells [1]; T84 cells,more potent than DM
same,"increase in 125I- efflux, dose dependence",CFPAC-1 cells,dose-dependent increase
same,"stimulation of 125I- efflux, dose dependence",2CFSMEo-,dose-dependent stimulation
"CCCCCCCCCCCCOS(=O)(=O)[O-].[Na+] [sodium dodecyl sulfate (SDS), sodium dodecyl sulfate]",release upon cell lysis,T84 cells [3],precipitous release
"C[C@@H]1CC[C@@]2(OC1)O[C@H]1[C@@H](O)[C@H]3[C@@H]4CC[C@H]5C[C@@H](O[C@@H]6O[C@H](CO)[C@H](O[C@@H]7O[C@H](CO)[C@@H](O)[C@H](O[C@@H]8OC[C@@H](O)[C@H](O)[C@H]8O)[C@H]7O[C@@H]7O[C@H](CO)[C@H](O)[C@H](O[C@@H]8O[C@H](CO)[C@@H](O)[C@H](O)[C@H]8O)[C@H]7O)[C@H](O)[C@H]6O)[C@H](O)C[C@]5(C)[C@H]4CC[C@]3(C)[C@H]1[C@@H]2C [Digitonin, digitonin, reference compound]",stimulation of 125I- efflux,"T84 cells [1]; T84 cells, 50 μM",pronounced effect
"CCCCCCCCCCCCO[C@@H]1O[C@H](CO)[C@@H](O)[C@H](O)[C@H]1O [DG, dodecylglucoside]","activity as Cl- channel activator on altering saccharide moiety, compared to DM at 100 μM",T84 cells [1]; T84 cells,markedly reduces the activity
same,effect in stimulating 125I- efflux,"T84 cells [1]; T84 cells, 100 μM",minimal effect
"O=C(O)c1cc([N+](=O)[O-])ccc1NCCCc1ccccc1 [NPPB, reference compound]",125I- efflux inhibition,"T84 cells [1]; T84 cells, blocker of some Cl- channels",inhibits
same,blocking of Cl- channels,2CFSMEo-,blocked
"CCCCCCCCCCCCCCO[C@@H]1O[C@H](CO)[C@@H](O[C@@H]2O[C@@H](CO)[C@H](O)[C@@H](O)[C@@H]2O)[C@H](O)[C@H]1O (stereo in doubt) [tetra DM, tetradecylmaltoside]",Cl- channel activity as measured by increased 125I- efflux,PLJ-CFPAC-10,stimulate
same,effective dosage,[2],10 to 400 µM
same,Cl- channel activity as measured by increased 125I- efflux,PLJ-CFTR-CFPAC-10,stimulate
same,potency as Cl- channel activator among alkylmaltosides tested,T84 cells [1],most potent
same,cause of 125I- efflux stimulation: cell lysis,T84 cells [1]; T84 cells,not due to lysis of the cells
same,"potency change on lengthening alkyl chain, DM as reference standard",T84 cells [1]; T84 cells,markedly increases the potency
same,"stimulation of 125I- efflux, dose dependence","T84 cells [1]; T84 cells, 10-100 μM",dose-dependent stimulation
same,potency in stimulating 125I- efflux relative to DM,T84 cells [1]; T84 cells,more potent than DM
same,"increase in 125I- efflux, dose dependence",CFPAC-1 cells,dose-dependent increase
same,"stimulation of 125I- efflux, dose dependence",2CFSMEo-,dose-dependent stimulation
CCCCCCCCO[C@@H]1O[C@H](CO)[C@@H](O)[C@H](O)[C@H]1O [octylglucoside],concentration at which an appreciable effect in stimulating 125I- efflux is shown,T84 cells [1]; T84 cells,≥ 500 µM
same,"potency relative to DM, tri DM and tetra DM",T84 cells [1]; T84 cells,"less potent than DM, tri DM and tetra DM"
same,stimulation of 125I- efflux,T84 cells [1]; T84 cells,stimulate
"CCCCCCCCCCCCO[C@@H]1O[C@H](CO)[C@@H](O[C@H]2O[C@H](CO)[C@@H](O)[C@H](O)[C@H]2O)[C@H](O)[C@H]1O [DM, dodecylmaltoside]",Cl- channel activity as measured by increased 125I- efflux,PLJ-CFPAC-10,stimulate
same,effective dosage,[2],10 to 400 µM
same,Cl- channel activity as measured by increased 125I- efflux,PLJ-CFTR-CFPAC-10,stimulate
same,cause of 125I- efflux stimulation: cell lysis,T84 cells [1]; T84 cells,not due to lysis of the cells
same,reversibility of response upon removal of the agent,T84 cells [1]; T84 cells,reversible
same,"rate of 125I- efflux during exposure, compared to control rate","T84 cells [1]; T84 cells, 100 μM or 200 μM DM",increased rate
same,"rate of 125I- efflux with DM remaining during efflux phase after preincubation, compared to same concentration without preincubation","T84 cells [1]; T84 cells, 100 μM or 200 μM DM",comparable
same,rate of 125I- efflux after removal of agent,"T84 cells [1]; T84 cells, 100 μM or 200 μM DM, after 2 min exposure",reverts to the control rate
same,"stimulation of 125I- efflux, dose dependence","T84 cells [1]; T84 cells, 10-400 μM",dose-dependent stimulation
same,rate of 125I- efflux on further exposure to forskolin in presence of DM,"T84 cells [1]; T84 cells, 80-100 μM DM plus 20 μM forskolin",additional increase
same,MNTC,T84 cells [4],< 150 µM
"C[C@H](CCC(=O)O)C[C@H](C)C[C@H](C)C(=O)/C=C(\O)[C@H](C)C[C@H](C)C/C=C/[C@@H](C)[C@@H](O)[C@@H](C)[C@@H](O)C[C@@H]1CC[C@@](C)([C@H]2CC[C@@](C)([C@@H](C)O)O2)O1 [ionomycin, reference compound]",Opening of Ca++-regulated Cl- channels,CF cells,opened
same,stimulation of 125I- efflux,"T84 cells [1]; T84 cells, 1 μM ionomycin",stimulation
same,response in 125I- efflux assay,CFPAC-1 cells,responds briskly
dodecylsucrose [DS],"activity as Cl- channel activator on altering saccharide moiety, compared to DM at 100 μM",T84 cells [1]; T84 cells,markedly reduces the activity
same,"potency relative to DM, tri DM and tetra DM",T84 cells [1]; T84 cells,"less potent than DM, tri DM and tetra DM"
same,stimulation of 125I- efflux,T84 cells [1]; T84 cells,stimulate
same,effect on 125I- efflux relative to DM at 100 μM,"T84 cells [1]; T84 cells, 100 μM",significantly smaller effect than DM
